Test results reported in the supplement of paper PMC11061612.

Legend:
Experiment in all cases: combination Emax (second highest fraction inhibited in the dose matrix, 72 h); higher = more inhibition; extreme values may be limits of the assay
[1] = tested on: EPLC-272H (Other Solid Carcinomas)
How it was run: (§1)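 After 24 hours at 37°C and 5% CO2 in 1536-well plates, cells in DMEM/F12 or RPMI plus 10% FBS received two-drug dose matrices for 72 hours. Viability came from CellTiter-Glo 2.0 luminescence and was scaled as inhibition, anchored at 0 by vehicle wells and at 1 by blank wells. Combination Emax is taken as the second-highest inhibition in the matrix, and Bliss excess as the observed combination effect less EA + EB − EA·EB, with EA and EB the single-agent effects.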

NB13 (Neuroblastoma) = tested on: NB13 (Neuroblastoma)
How it was run: as §1

HCC70 (Breast Carcinoma) = tested on: HCC70 (Breast Carcinoma)
How it was run: as §1

[2] = tested on: NCI-H2228 (Lung Adenocarcinoma)
How it was run: as §1

[3] = tested on: CESS (Acute Myeloid Leukemia)
How it was run: as §1

5637 (Bladder Carcinoma) = tested on: 5637 (Bladder Carcinoma)
How it was run: as §1

KP-N-YN (Neuroblastoma) = tested on: KP-N-YN (Neuroblastoma)
How it was run: as §1

[4] = tested on: HCC1428 (Breast Carcinoma)
How it was run: as §1

[5] = tested on: HT55 (Colorectal Carcinoma)
How it was run: as §1

[6] = tested on: MHH-ES-1 (Ewing's Sarcoma)
How it was run: as §1

[7] = tested on: G-402 (Other Solid Carcinomas)
How it was run: as §1

[8] = tested on: ESO26 (Esophageal Adenocarcinoma)
How it was run: as §1

[9] = tested on: SK-HEP-1 (Hepatocellular Carcinoma)
How it was run: as §1

[10] = tested on: NCI-H2087 (Lung Adenocarcinoma)
How it was run: as §1

[11] = tested on: SW620 (Colorectal Carcinoma)
How it was run: as §1

EW-16 (Ewing's Sarcoma) = tested on: EW-16 (Ewing's Sarcoma)
How it was run: as §1

[12] = tested on: JVM-2 (B-Cell Non-Hodgkin's Lymphoma)
How it was run: as §1

[13] = tested on: Jurkat (T-Lymphoblastic Leukemia)
How it was run: as §1

[14] = tested on: CGTH-W-1 (Thyroid Gland Carcinoma)
How it was run: as §1

RH-41 (Rhabdomyosarcoma) = tested on: RH-41 (Rhabdomyosarcoma)
How it was run: as §1

SMILES | combination Emax [1] | combination Emax (NB13 (Neuroblastoma)) | combination Emax (HCC70 (Breast Carcinoma)) | combination Emax [2] | combination Emax [3] | combination Emax (5637 (Bladder Carcinoma)) | combination Emax (KP-N-YN (Neuroblastoma)) | combination Emax [4] | combination Emax [5] | combination Emax [6] | combination Emax [7] | combination Emax [8] | combination Emax [9] | combination Emax [10] | combination Emax [11] | combination Emax (EW-16 (Ewing's Sarcoma)) | combination Emax [12] | combination Emax [13] | combination Emax [14] | combination Emax (RH-41 (Rhabdomyosarcoma))
C=CCn1c(=O)c2cnc(Nc3ccc(N4CCN(C)CC4)cc3)nc2n1-c1cccc(C(C)(C)O)n1 [AZD1775] + O=C(c1cc(Cc2n[nH]c(=O)c3ccccc23)ccc1F)N1CCN(C(=O)C2CC2)CC1 [Olaparib] (first compound max 1 µM, partner max 10 µM) | 0.761 | 0.935 | 0.56 | 0.592 | 0.916 | 0.836 | 0.723 | 0.375 | 0.454 | 0.886 | 0.41 | 0.474 | 0.462 | 0.493 | 0.603 | 0.529 | 0.888 | 0.842 | 0.193 | 0.953
CCN(CCO)CCCOc1ccc2c(Nc3cc(CC(=O)Nc4cccc(F)c4)[nH]n3)ncnc2c1 [AZD2811] + C=CCn1c(=O)c2cnc(Nc3ccc(N4CCN(C)CC4)cc3)nc2n1-c1cccc(C(C)(C)O)n1 [AZD1775] (first compound max 1 µM, partner max 1 µM) | 0.803 | 0.924 | 0.589 | 0.598 | 0.922 | 0.893 | 0.913 | 0.158 | 0.376 | 0.734 | 0.526 | 0.604 | 0.355 | 0.291 | 0.461 | 0.41 | 0.91 | 0.798 | 0.217 | 0.961
CN(CCO)CC[C@H](CSc1ccccc1)Nc1ccc(S(=O)(=O)NC(=O)c2ccc(N3CCC([C@@H](O)c4ccccc4-c4ccc(Cl)cc4)CC3)cc2)cc1S(=O)(=O)C(F)(F)F [AZD4320] + CN(C)CCCOc1ccc(-c2ccc3ncc4c(c3c2)n(C2CCOCC2)c(=O)n4C)cn1 [AZD0156] (first compound max 1 µM, 7x7, partner max 1 µM) | 0.439 | 1 | 0.281 | 0.278 | 0.333 | 0.222 |  | 0.541 | 0.161 | 0.491 | 0.401 | 0.153 | 0.325 | 0.321 | 0.366 | 0.406 | 0.487 | 0.478 | 0.119 | 0.85
Cc1c2c(nn1C)CSCc1cc(n(C)n1)CSc1cc(c3ccccc3c1)OCCCc1c(C(=O)O)n(C)c3c-2c(Cl)ccc13 [AZD5991] + CCN(CCO)CCCOc1ccc2c(Nc3cc(CC(=O)Nc4cccc(F)c4)[nH]n3)ncnc2c1 [AZD2811] (first compound max 1 µM, 7x7, partner max 1 µM) | 0.945 | 0.615 | 0.935 | 0.296 | 0.578 | 0.91 |  | 0.974 | 0.553 | 0.883 | 0.946 | 0.319 | 0.387 | 0.191 | 0.512 | 0.808 | 0.772 | 0.919 | 0.521 | 1
CS(=O)(=O)CCNCc1ccc(-c2ccc3ncnc(Nc4ccc(OCc5cccc(F)c5)c(Cl)c4)c3c2)o1 [Lapatinib] + NC1(c2ccc(-c3nc4ccn5c(=O)[nH]nc5c4cc3-c3ccccc3)cc2)CCC1 [MK-2206] (first compound max 10 µM, 7x7, partner max 10 µM) |  | 0.952 | 0.923 |  |  |  | 0.922 | 0.308 |  | 0.905 |  |  | 0.87 | 0.293 | 0.889 |  |  |  | 0.894 | 
CCc1c2c(nc3ccc(O)cc13)-c1cc3c(c(=O)n1C2)COC(=O)[C@]3(O)CC [SN-38] + O=C(c1cc(Cc2n[nH]c(=O)c3ccccc23)ccc1F)N1CCN(C(=O)C2CC2)CC1 [Olaparib] (first compound max 0.3 µM, 7x7, partner max 10 µM) | 0.856 | 0.832 | 0.455 |  | 0.989 |  | 0.491 |  | 0.489 | 0.978 | 0.829 | 0.764 | 0.665 | 0.909 | 0.822 | 0.981 | 0.934 |  | 0.768 | 
Cc1nc(-c2cn3c(n2)-c2ccc(-c4cnn(C(C)(C)C(N)=O)c4)cc2OCC3)n(C(C)C)n1 [Taselisib] + O=C(Nc1ccc2[nH]nc(-c3ccncc3)c2c1)[C@@H]1CCN(CC(=O)N2CCN(c3ccc(-c4ncccn4)cc3)CC2)C1 [SCH772984] (first compound max 10 µM, 7x7, partner max 5 µM) |  | 0.424 | 0.943 |  |  |  | 0.553 |  |  | 0.609 |  |  | 0.389 | 0.71 | 0.764 |  |  |  | 0.977 | 
CC1(C)CCC(CN2CCN(c3ccc(C(=O)NS(=O)(=O)c4ccc(NCC5CCOCC5)c([N+](=O)[O-])c4)c(Oc4cnc5[nH]ccc5c4)c3)CC2)=C(c2ccc(Cl)cc2)C1 [Venetoclax] + CS(=O)(=O)CCNCc1ccc(-c2ccc3ncnc(Nc4ccc(OCc5cccc(F)c5)c(Cl)c4)c3c2)o1 [Lapatinib] (first compound max 1 µM, 7x7, partner max 10 µM) |  | 0.43 | 0.343 |  |  |  | 0.57 |  |  | 0.371 |  |  | 0.308 | 0.0976 | 0.184 |  |  |  | 0.115 | 
